Experimental findings from patent US6806291B1, “Analgesic compounds, their synthesis and pharmaceutical compositions containing them” (The Foundation for the LSU Health Sciences Center, priority 2003, dated 2004) are described below.

For data set [1], the system named is human hepatocytes in primary cultures. The data set can be described thus: Hepatotoxic effect in primary human hepatocytes, Trypan blue exclusion and Hoechst staining. The data set is classed as cell-based. On the procedure: […]. […] […].
Hoechst staining was employed for detection of apoptosis. […] 45 min.

Data set [2] relates to human hepatocytes (HEPG-2). As to the method:
(§1) The hepatotoxic effects of SCP-M1 were evaluated in human hepatocytes (HEPG-2) and in human primary cultures of normal liver cells. […] Phase contrast, microscopy, Trypan blue exclusion, Hoechst staining, and FAS-ligand and CAR (constitutive androstane receptor) induction were used as criteria. […] HEPG-2 cells were grown and maintained in EMEM medium containing NEAA (nonessential amino acids), supplemented with 10% fetal bovine serum (FBS), and incubated at 37° C. with a constant supply of 5% CO2. Primary human liver cells were grown in HCM medium (Walkersville, Md.), and maintained in HMM medium (Walkersville, Md.) at 37° C. with 5% CO2. 80% confluent cultures of HEPG2 and primary hepatocytes growing in 6- and 24-well plates, respectively were held 6-8 hr in serum-free medium (EMEM, 0.5% FBS for HEPG2 and HMM [Clonetics, Walkersville, Md.] for primary hepatocytes) before the addition of analgesics.

The test system of data set [3] is CAR (constitutive androstane receptor). On the procedure:
as §1
(§2) The up-regulation of FAS-ligand (FAS-L) and activation of CAR (constitutive androstane receptor) were analyzed by Western blot. Briefly, the cell extracts were made, and adjusted for protein concentrations by the Bio-rad method. About 15-20 μg protein were loaded onto an 8-16% gel (Bio-rad), and electrophoresis was conducted for 2 hr at 120 V. The proteins were transferred onto nitrocellulose membrane at 30 V for 60 min at 4° C.

Another data set relates to FAS-ligand. On the procedure:
as §1, §2

The subject of data set [4] is Complete Freund's Adjuvant (CFA)-induced thermal hyperalgesia. The data set can be described thus: CFA-induced thermal hyperalgesia (paw withdrawal latency, Hargreaves). The data set is classed as in vivo, male CD-1 mice. As to conditions: 2.5 mmol/kg by oral gavage at 48 hours post-CFA; latency measured 30 minutes to 6 hour after drug; ANOVA drug effect p=0.014. On the procedure: To determine whether the SCP-M series has analgesic activity, its effect on Complete Freund's Adjuvant (CFA)—induced thermal hyperalgesia was accessed. Under halothane anesthesia, male CD-1 mice were injected with 0.1 ml of CFA (Calbiochem, USA) to the glabrous surface of one hind paw. When injected into the footpad, CFA produces localized inflammation and hyperalgesia that appears within two hours and is present for 7 to 10 days (Iadorola, et al., 1988). At 48-hours post-CFA (time of peak hyperalgesia), each mouse received by oral gavage 2.5 mmol/kg of SCP-M1 or vehicle. The latency to withdraw the paw from a thermal stimulus (Hargreaves, et al., 1988) was measured using an analgesiometer (IITC Life Sciences, Inc., Woodland Hills, Calif.) according to the technique of Hargreaves, et al. The stimulus intensity was set to produce baseline latencies of about 10-15 seconds, and a 20 second maximum latency was used. Thermal hyperalgesia was measured before drug administration (pre-drug baseline), and again at 30 minutes, 1 hour, 2 hour, 3 hour, 4 hour, 5 hour, and 6 hour after drug administration.
No other statistically significant effects were found (time effect: F(6,90)=0.486, p=0.817; drugxtime interaction: F(6,90)=0.634, p=0.793). The effects of SCP-M1 on CFA-induced thermal hyperalgesia are shown as a percentage of pre-drug baseline in FIG. 1.

Take `CC(=O)Nc1ccc(O)cc1` [acetaminophen, reference compound]: in data set [1] (human hepatocytes in primary cultures, treated 6-8 hr at 37° C.), the “apoptosis by Trypan blue exclusion and Hoechst staining” value is “enhanced apoptosis”.

In the case of `O=C(CNS(=O)(=O)c1ccccc1C(=O)O)Nc1ccc(O)cc1` [SCP-M1, 2-{[(4-hydroxyphenyl)carbamoyl]methylsulfamoyl}benzoic acid], the “apoptotic cell death by Hoechst staining” value in data set [2] is recorded as “practically ineffective in inducing cell death”. The CAR activation result in data set [3] is “reduced effects”. Further, the “pro-apoptotic FAS-ligand up-regulation” value in the data set on FAS-ligand is “reduced effects”. For the same molecule, the “apoptosis by Trypan blue exclusion and Hoechst staining” value in data set [1] (human) is on record as “enhanced apoptosis was caused by acetaminophen but not SCP-M1”. For the same molecule, the “analgesic effect on CFA-induced thermal hyperalgesia vs vehicle treated controls” value in data set [4] is on record as “significant analgesic effect”.
